Measured values: patent US8338565B2, “Macrocyclic compounds for inhibition of tumor necrosis factor alpha” (Ensemble Therapeutics Corporation, priority 2008, dated 2012)

molecular target: T1, TNFα / TNFα receptor (TNFα R1/Fc) (Homo sapiens, UniProt P01375); assay: Inhibition of binding of TNFα to the TNFα receptor (plate ELISA competition); conditions: Activity (IC50, inhibition of TNFα binding to TNFα R1/Fc), Table 2
T1 construct: purchased R&D Systems
In short: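 Plates were coated with TNFα at 15 nM. Test compound and 8.33 nM receptor-Fc (PBST, 2% DMSO) were first mixed in solution for 30 min at room temperature, then transferred to the plates for another 30 min. Competition was read by absorbance at 450 nm after HRP anti-human IgG Fc detection with TMB.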

T1 sequence (P01375 77-233 limits assumed, species assumed): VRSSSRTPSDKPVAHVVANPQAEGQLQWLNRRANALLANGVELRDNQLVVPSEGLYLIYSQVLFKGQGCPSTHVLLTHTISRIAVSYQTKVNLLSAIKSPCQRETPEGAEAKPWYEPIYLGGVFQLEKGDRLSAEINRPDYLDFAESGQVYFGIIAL

O=C1COc2ccc(cc2)C[C@@H](C(=O)N[C@@H](Cc2ccccc2)C(=O)O)NC(=O)[C@H](CCc2ccccc2)NC(=O)[C@@H](Cc2ccc(-c3ccccc3)cc2)NC(=O)[C@H](Cc2ccncc2)N1 [Compound 554] and O=C1COc2ccc(cc2)C[C@H](C(=O)N[C@@H](Cc2ccccc2)C(=O)O)NC(=O)[C@@H](CCc2ccccc2)NC(=O)[C@H](Cc2ccc(-c3ccccc3)cc2)NC(=O)[C@@H](Cc2cccs2)N1 [Compound 561] cannot be ordered by IC50: < 10 µM for the first, < 10 µM for the second.

O=C1COc2ccc(cc2)C[C@@H](C(=O)N[C@H](CO)C(=O)O)NC(=O)[C@H](CCc2ccccc2)NC(=O)[C@@H](Cc2ccc(-c3ccccc3)cc2)NC(=O)[C@H](Cc2ccncc2)N1 [Compound 555] and O=C1COc2ccc(cc2)C[C@@H](C(=O)N[C@@H](CO)C(=O)O)NC(=O)[C@H](CCc2ccccc2)NC(=O)[C@@H](Cc2ccc(-c3ccccc3)cc2)NC(=O)[C@H](Cc2ccncc2)N1 [Compound 556] cannot be ordered by IC50: < 10 µM for the first, < 10 µM for the second.

O=C1COc2ccc(cc2)C[C@H](C(=O)N[C@H](Cc2ccccc2)C(=O)O)NC(=O)[C@@H](CCc2ccccc2)NC(=O)[C@H](Cc2ccc(-c3ccccc3)cc2)NC(=O)[C@@H](Cc2cccs2)N1 [Compound 562] and C[C@@H](C(=O)O)N(C)C(=O)[C@@H]1Cc2ccc(cc2)OCC(=O)N[C@@H](Cc2cccs2)C(=O)N[C@H](Cc2ccc(-c3ccccc3)cc2)C(=O)N[C@@H](CCc2ccccc2)C(=O)N1 [Compound 575] cannot be ordered by IC50: < 10 µM for the first, < 10 µM for the second.

First: O=C1COc2ccc(cc2)C[C@@H](C(=O)NCS(=O)(=O)O)NC(=O)[C@H](Cc2ccc(O)cc2)NC(=O)[C@@H](Cc2ccc(-c3ccccc3)cc2)NC(=O)[C@H](Cc2cccs2)N1 [Compound 566]
Second: C[C@H](C(=O)O)N(C)C(=O)[C@@H]1Cc2ccc(cc2)OCC(=O)N[C@@H](Cc2cccs2)C(=O)N[C@H](Cc2ccc(-c3ccccc3)cc2)C(=O)N[C@@H](CCc2ccccc2)C(=O)N1 [Compound 576]
The IC50 of the first is higher: 10 to 30 µM for the first, < 10 µM for the second.

same assay, conditions: Table 2; read-out: Activity (IC50, inhibition of TNFα binding to TNFα R1/Fc)

C[C@@H](NC(=O)[C@@H]1Cc2ccc(cc2)OCC(=O)N[C@@H](Cc2ccncc2)C(=O)N[C@H](Cc2ccc(-c3ccccc3)cc2)C(=O)N[C@@H](CCc2ccccc2)C(=O)N1)C(=O)O [Compound 557] and O=C(O)CNC(=O)[C@@H]1Cc2ccc(cc2)OCC(=O)N[C@@H](Cc2ccncc2)C(=O)N[C@H](Cc2ccc(-c3ccccc3)cc2)C(=O)N[C@@H](CCc2ccccc2)C(=O)N1 [Compound 558] cannot be ordered by IC50: < 10 µM for the first, < 10 µM for the second.

O=C(O)CCNC(=O)[C@@H]1Cc2ccc(cc2)OCC(=O)N[C@@H](Cc2ccncc2)C(=O)N[C@H](Cc2ccc(-c3ccccc3)cc2)C(=O)N[C@@H](CCc2ccccc2)C(=O)N1 [Compound 559] and O=C(O)CCCNC(=O)[C@@H]1Cc2ccc(cc2)OCC(=O)N[C@@H](Cc2ccncc2)C(=O)N[C@H](Cc2ccc(-c3ccccc3)cc2)C(=O)N[C@@H](CCc2ccccc2)C(=O)N1 [Compound 560] cannot be ordered by IC50: < 10 µM for the first, < 10 µM for the second.

First: O=C1COc2ccc(cc2)C[C@@H](C(=O)N[C@@H](CO)C(=O)O)NC(=O)[C@H](Cc2ccc(O)cc2)NC(=O)[C@@H](Cc2ccc(-c3ccccc3)cc2)NC(=O)[C@H](Cc2cccs2)N1 [Compound 563]
Second: O=C(O)CCNC(=O)[C@@H]1Cc2ccc(cc2)OCC(=O)N[C@@H](Cc2cccs2)C(=O)N[C@H](Cc2ccc(-c3ccccc3)cc2)C(=O)N[C@@H](Cc2ccc(O)cc2)C(=O)N1 [Compound 564]
The IC50 of the first is higher: 30 to 100 µM for the first, < 10 µM for the second. The second is the more potent here.

O=C1COc2ccc(cc2)C[C@@H](C(=O)N[C@H](Cc2ccccc2)C(=O)O)NC(=O)[C@H](Cc2ccc(O)cc2)NC(=O)[C@@H](Cc2ccc(-c3ccccc3)cc2)NC(=O)[C@H](Cc2cccs2)N1 [Compound 565] and O=C1COc2ccc(cc2)C[C@@H](C(=O)N[C@@H](Cc2ccc(O)cc2)C(=O)O)NC(=O)[C@H](CCc2ccccc2)NC(=O)[C@@H](Cc2ccc(-c3ccccc3)cc2)NC(=O)[C@H](Cc2ccc(-c3ccccc3)cc2)N1 [Compound 567] cannot be ordered by IC50: < 10 µM for the first, < 10 µM for the second.

First: O=C(O)CCCNC(=O)[C@@H]1Cc2ccc(cc2)OCC(=O)N[C@@H](Cc2ccc(-c3ccccc3)cc2)C(=O)N[C@H](Cc2ccc(-c3ccccc3)cc2)C(=O)N[C@@H](CCc2ccccc2)C(=O)N1 [Compound 568]
Second: O=C(O)CCNC(=O)[C@@H]1Cc2ccc(cc2)OCC(=O)N[C@@H](Cc2ccc(-c3ccccc3)cc2)C(=O)N[C@H](Cc2ccc(-c3ccccc3)cc2)C(=O)N[C@@H](CCc2ccccc2)C(=O)N1 [Compound 569]
The IC50 of the first is higher: 30 to 100 µM for the first, < 10 µM for the second.

First: O=C(O)CNC(=O)[C@@H]1Cc2ccc(cc2)OCC(=O)N[C@@H](Cc2ccc(-c3ccccc3)cc2)C(=O)N[C@H](Cc2ccc(-c3ccccc3)cc2)C(=O)N[C@@H](CCc2ccccc2)C(=O)N1 [Compound 570]
Second: C[C@H](NC(=O)[C@@H]1Cc2ccc(cc2)OCC(=O)N[C@@H](Cc2ccc(-c3ccccc3)cc2)C(=O)N[C@H](Cc2ccc(-c3ccccc3)cc2)C(=O)N[C@@H](CCc2ccccc2)C(=O)N1)C(=O)O [Compound 572]
The IC50 of the first is higher: 10 to 30 µM for the first, < 10 µM for the second.

O=C1COc2ccc(cc2)C[C@@H](C(=O)N[C@H](CO)C(=O)O)NC(=O)[C@H](CCc2ccccc2)NC(=O)[C@@H](Cc2ccc(-c3ccccc3)cc2)NC(=O)[C@H](Cc2ccc(-c3ccccc3)cc2)N1 [Compound 571] and C[C@@H](NC(=O)[C@@H]1Cc2ccc(cc2)OCC(=O)N[C@@H](Cc2ccc(-c3ccccc3)cc2)C(=O)N[C@H](Cc2ccc(-c3ccccc3)cc2)C(=O)N[C@@H](CCc2ccccc2)C(=O)N1)C(=O)O [Compound 577] cannot be ordered by IC50: < 10 µM for the first, < 10 µM for the second.

Going from O=C1COc2ccc(cc2)C[C@@H](C(=O)N[C@H](Cc2ccccc2)C(=O)O)NC(=O)[C@H](CCc2ccccc2)NC(=O)[C@@H](Cc2ccc(-c3ccccc3)cc2)NC(=O)[C@H](Cc2ccc(-c3ccccc3)cc2)N1 [Compound 573] to O=C1COc2ccc(cc2)C[C@@H](C(=O)N[C@@H](Cc2ccccc2)C(=O)O)NC(=O)[C@H](CCc2ccccc2)NC(=O)[C@@H](Cc2ccc(-c3ccccc3)cc2)NC(=O)[C@H](Cc2ccc(-c3ccccc3)cc2)N1 [Compound 574], the IC50 rises from < 10 µM to > 100 µM.

Compared with O=C1COc2ccc(cc2)C[C@@H](C(=O)NCCO)NC(=O)[C@H](CCc2ccccc2)NC(=O)[C@@H](Cc2ccc(-c3ccccc3)cc2)NC(=O)[C@H](Cc2ccncc2)N1 [Compound 578], O=C(O)CCNC(=O)[C@@H]1Cc2ccc(cc2)OCC(=O)N[C@@H](Cc2ccc(-c3ccncc3)cc2)C(=O)N[C@H](Cc2ccc(-c3ccccc3)cc2)C(=O)N[C@@H](CCc2ccccc2)C(=O)N1 [Compound 579] is lower in IC50: > 100 µM for the first, < 10 µM for the second.

O=C(O)CCCNC(=O)[C@@H]1Cc2ccc(cc2)OCC(=O)N[C@@H](Cc2ccc(-c3ccncc3)cc2)C(=O)N[C@H](Cc2ccc(-c3ccccc3)cc2)C(=O)N[C@@H](CCc2ccccc2)C(=O)N1 [Compound 580] and O=C1COc2ccc(cc2)C[C@@H](C(=O)N[C@@H](CO)C(=O)O)NC(=O)[C@H](CCc2ccccc2)NC(=O)[C@@H](Cc2ccc(-c3ccccc3)cc2)NC(=O)[C@H](Cc2ccc(-c3ccncc3)cc2)N1 [Compound 583] cannot be ordered by IC50: < 10 µM for the first, < 10 µM for the second.

O=C1COc2ccc(cc2)C[C@@H](C(=O)N[C@@H](Cc2ccccc2)C(=O)O)NC(=O)[C@H](CCc2ccccc2)NC(=O)[C@@H](Cc2ccc(-c3ccccc3)cc2)NC(=O)[C@H](Cc2ccc(-c3ccncc3)cc2)N1 [Compound 581] and O=C1COc2ccc(cc2)C[C@@H](C(=O)N[C@H](Cc2ccccc2)C(=O)O)NC(=O)[C@H](CCc2ccccc2)NC(=O)[C@@H](Cc2ccc(-c3ccccc3)cc2)NC(=O)[C@H](Cc2ccc(-c3ccncc3)cc2)N1 [Compound 582] cannot be ordered by IC50: < 10 µM for the first, < 10 µM for the second.
